Laboratory results: publication PMC11224556, “Next-generation of BBQ analogues that selectively target breast cancer” (Frontiers in Chemistry, 2024)
Read-outs that look alike come from different tables or passages of the source.

Columns and labels:
Assay type in all cases: cell-based, human
[1] = test system: broad panel of cancer cell lines and non-cancer breast cell line MCF10A; test: MTT growth inhibition: GI50 ranges and selectivity across the cell line panel
Description: (§1) Each BBQ analogue, 2-14 was screened for their growth inhibition ability (GI50) in a broad panel of cancer cell lines and a non-cancer breast cell line (MCF10A), using the MTT growth inhibition assay (Table 1) ([Baker et al., 2021b]). The cancer panel comprised HT29 (colorectal), U87 (brain), SJ-G2 (brain), A2780 (ovary), Du145 (prostate), BE2-C (neuronal), MIA (pancreas), H460 (lung, ER+), A431 (vulva, ER+ (estrogen receptor positive)), and a wide selection of breast cancer cell lines with varying receptor status including MCF-7 (ER + luminal A), T47D (ER/PR+ (progesterone receptor positive)luminal A), ZR-75-1 (ER/PR + luminal A), BT-474 (ER/PR/HER2+ luminal B), SKBR-3 (HER2+), MDA-MB-468, BT20, and MDA-MB-231 (basal, triple negative (TN) for ER, PR, and HER2).
(§2) Stock solutions were prepared as follows and stored as 20 mM DMSO solutions at −20 °C. All cell lines were cultured in a humidified atmosphere 5% CO2 at 37 °C. The cancer cell lines were maintained in Dulbecco’s modified Eagle’s medium (DMEM) (Trace Biosciences, Australia) supplemented with 10% foetal bovine serum (FBS), 10 mM sodium bicarbonate, penicillin (100 IU/mL), streptomycin (100 μg/mL), and glutamine (4 mM). The non-cancer MCF10A cell line was cultured in DMEM:F12 (1:1) cell culture media, 5% heat inactivated horse serum, supplemented with penicillin (50 IU/mL), streptomycin (50 μg/mL), 20 mM Hepes, L-glutamine (2 mM), epidermal growth factor (20 ng/mL), hydrocortisone (500 ng/mL), cholera toxin (100 ng/mL), and insulin (10 μg/mL). The AhR reporter cell line HT29-Lucia™ (Invivogen, United States) was maintained in DMEM supplemented with 10% heat inactivated FBS, L-glutamine (2 mM), penicillin (100 IU/mL), streptomycin (100 μg/mL), 100 μg/mL Normocin™, and 100 μg/mL of the selective antibiotic Zeocin™. All cell lines were purchased from the American Type Culture Collection (ATCC), except for A2780 and A431 which were from the European Collection of Authenticated Cell Cultures (ECACC), and SJ-G2 cell line which was from Dr Mary Danks, St Jude Children’s Research hospital, Memphis, TN.
(§3) Cells in logarithmic growth were transferred to 96-well plates. Cytotoxicity was determined by plating cells in duplicate in 100 μL medium at a density of 2,500–4,000 cells/well in 96 well plates. On day 0, (24 h after plating) when the cells were in logarithmic growth 100 μL medium with or without the test agent was added to each well. After 72 h drug exposure growth inhibitory effects were evaluated using the MTT (3-[4,5-dimethylthiazol-2-yl]-2,5-diphenyltetrazolium bromide) assay with absorbance read at 540 nm. An eight-point dose response curve was produced, using MS Excel software. From these dose-response curves, the GI50 value was calculated, representing the drug concentration at which cell growth is 50% inhibited based on the difference between the optical density values on day 0 and those at the end of drug exposure ([Bradshaw et al., 2008]; [Zhang et al., 2009]). Each data point was conducted in duplicate and the mean ± S.E.M. calculated from four to five replicates (n = 4 or 5), which were performed on separate occasions and separate cell line passages. Where shown, significant test results were determined using T-test analysis at p < 0.01 and p < 0.05 with a two tail distribution.

A431 (vulva/skin) cells = test: MTT growth inhibition assay (72 h); details: Homo sapiens, A-431, A431, Skin (ER)
Description: as §1, §2, §3

[2] = test system: SKBR3 breast cancer cells; test: MTT growth inhibition assay (72 h); details: Homo sapiens, SK-BR-3, SKBR3, Breast (HER2)
Description: as §1, §2, §3

[3] = test system: ZR-75-1 breast cancer cells; test: MTT growth inhibition assay (72 h); details: Homo sapiens, ZR-75-1, Breast (ER/PR)
Description: as §1, §2, §3

SJ-G2 (brain) cells = test: MTT growth inhibition assay (72 h); details: Homo sapiens, SJ-G2, Brain (GBM)
Description: as §1, §2, §3

A2780 (ovary) cells = test: MTT growth inhibition assay (72 h); details: Homo sapiens
Description: as §1, §2, §3

Du145 (prostate) cells = test: MTT growth inhibition assay (72 h); details: Homo sapiens, DU-145
Description: as §1, §2, §3

HT29 (colorectal) cells = test: MTT growth inhibition assay (72 h); details: Homo sapiens, HT-29, HT29, Colon
Description: as §1, §2, §3

H460 (lung) cells = test: MTT growth inhibition assay (72 h); details: Homo sapiens, NCI-H460, H460, Lung (ER)
Description: as §1, §2, §3

[4] = test system: MCF10A normal breast cells; test: MTT growth inhibition assay (72 h); details: Homo sapiens, MCF-10A
Description: as §1, §2, §3

T47D breast cancer cells = test: MTT growth inhibition assay (72 h); details: Homo sapiens, Breast (ER/PR)
Description: as §1, §2, §3

U87 (brain) cells = test: MTT growth inhibition assay (72 h); details: Homo sapiens, U87, Brain (GBM)
Description: as §1, §2, §3

BT20 breast cancer cells = test: MTT growth inhibition assay (72 h); details: Homo sapiens, BT-20, BT20, Breast (TN)
Description: as §1, §2, §3

MIA (pancreas) cells = test: MTT growth inhibition assay (72 h); details: Homo sapiens
Description: as §1, §2, §3

BE2-C (neuronal) cells = test: MTT growth inhibition assay (72 h); details: Homo sapiens, BE(2)-C, Neuron
Description: as §1, §2, §3

[5] = test system: BT474 breast cancer cells; test: MTT growth inhibition assay (72 h); details: Homo sapiens, BT-474, BT474, Breast (ER/PR/HER2)
Description: as §1, §2, §3

[6] = test system: MDA-MB-231 breast cancer cells; test: MTT growth inhibition assay (72 h); details: Homo sapiens, MDA-MB-231, Breast (TN)
Description: as §1, §2, §3

[7] = test system: MCF-7 breast cancer cells; test: MTT growth inhibition assay (72 h); details: Homo sapiens, MCF7, MCF-7, Breast (ER)
Description: as §1, §2, §3

[8] = test system: MDA-MB-468 breast cancer cells; test: MTT growth inhibition assay (72 h); details: Homo sapiens, MDA-MB-468, Breast (TN)
Description: as §1, §2, §3

SMILES | GI50 (A431 (vulva/skin) cells) [µM] | GI50 [2] [µM] | GI50 [3] [µM] | GI50 (SJ-G2 (brain) cells) [µM] | GI50 (A2780 (ovary) cells) [µM] | GI50 (Du145 (prostate) cells) [µM] | GI50 (HT29 (colorectal) cells) [µM] | GI50 (H460 (lung) cells) [µM] | GI50 [4] [µM] | GI50 (T47D breast cancer cells) [µM] | GI50 (U87 (brain) cells) [µM] | GI50 (BT20 breast cancer cells) [µM] | GI50 (MIA (pancreas) cells) [µM] | GI50 (BE2-C (neuronal) cells) [µM] | GI50 [5] [µM] | GI50 [6] [µM] | GI50 [7] [µM] | other results
Nc1ccccc1N1C(=O)c2cccc3cccc(c23)C1=O [Compound 2, 2-(2-aminophenyl)-1H-benzo[de]isoquinoline-1,3(2H)-dione] |  |  |  |  |  |  |  |  |  |  |  |  |  |  |  |  |  | increase in growth inhibition potency compared with MCF10A cells (fold, range over cell lines) ([1]; A431, T47D, ZR-75-1, SKBR3, MDA-MB-468 vs MCF10A, from GI50 values of ref Gilbert et al., 2020): 100 to 300 fold
O=c1c2cccc3cccc(c32)c2nc3ccc(Cl)cc3n12 [Compound 3, 10-Chloro-7H-benzo[de]benzo[4,5]imidazo[2,1-a]isoquinolin-7-one] | 12 ± 1.8 | 0.3 ± 0.12 | 0.48 ± 0.24 | 33 ± 8.3 | 6.2 ± 0.46 | 22 ± 3.1 | 21 ± 3.3 | 7.2 ± 1.16 | 3.9 ± 0.21 | 11 ± 1.4 | 18 ± 3.8 | 33 ± 4 | > 50 | 17 ± 4.3 | > 50 | 17 ± 6.1 | 7.9 ± 1.14 | GI50 ([1]; Homo sapiens, read-out: GI50 (range over cell lines and both compounds 3 and 4), ZR-75-1, SKBR3 and MDA-MB-468): 0.26 to 0.88 µM
O=c1c2cccc3cccc(c32)c2nc3ccccc3n12 [Compound 5, 7H-Benzo[de]benzo[4,5]imidazo[2,1-a]isoquinolin-7-one] | 0.05 ± 0.013 | 0.032 ± 0.014 | 0.026 ± 0.015 | 4.6 ± 0.23 | 2.2 ± 0.21 | 4.1 ± 0.03 | 2.1 ± 0.3 | 0.61 ± 0.13 | 3.2 ± 0.32 | 0.2 ± 0.073 | 7 ± 0.033 | 0.41 ± 0.39 | 5.2 ± 0.73 | 5.1 ± 0.74 | 1.5 ± 1.3 | 5.5 ± 1.8 | 2.1 ± 0.44 | fold greater response (selectivity) in MDA-MB-468 than in normal MCF10A breast cells ([1]; GI50 MCF10A / GI50 MDA-MB-468): 3,200 fold; growth inhibition compared with normal cells (fold, range over cell lines) ([1]; H460, A431, T47D, ZR-75-1, SKBR3, MDA-MB-468, BT20 vs MCF10A): 5 to 3200 fold; GI50 ([1]; Homo sapiens, T47D, ZR-75-1, SKBR3, MDA-MB-468 and BT20, read-out: GI50 (range over cell lines)): 0.001 to 0.41 µM; GI50 ([1]; Homo sapiens, all other cell populations (than H460, A431, T47D, ZR-75-1, SKBR3, MDA-MB-468, BT20), read-out: GI50 (range over cell lines)): 1.5 to 7 µM; GI50 ([1]; Homo sapiens, other cell lines HT29, U87, SJ-G2, A2780, DU145, BE2-C, MIA, MDA-MB-231, read-out: GI50 (range over cell lines)): 2.1 to 7 µM; fold more potent than head group substituted analogues 3, 4, 6, 7, 8 and 9 ([1]; across the cell lines examined (Table 1)): > 10 fold; GI50 ([1]; select breast cancer cell lines MCF-7, T47D, ZR-75-1, SKBR3, MDA-MB-468, BT20, BT474, read-out: GI50 values (range over cell lines)): 0.001 to 2.1 µM
O=C(O)c1ccc2c3c1cccc3c(=O)n1c3ccccc3nc21 [Compound 14, reference compound] | 28 ± 5.1 | 21 ± 0.67 | 24 ± 3.3 | 13 ± 1.2 | 12 ± 0.91 | 21 ± 2 |  | 20 ± 0.33 | 15 ± 0.58 | 16 ± 0.58 | 25 ± 1.7 | 50 | 20 ± 0.67 | 6.9 ± 1.6 | > 50 | 50 | > 50 | GI50 [8]: 6.13 ± 3.05 µM
